From PubChem BioAssay AID256 (DTP/NCI, 2004)
“And” between values parts separate entries of the source, which are not always exact repeats. Identical values can stand only once. Toxic doses and inconclusive results are not listed. The calls were made as follows: active = survival T/C of 150% or more; inactive = T/C below 125% in these data.

Test system: CD2F1 mice, L1210 leukemia ip, survival T/C
Experiment: NCI In Vivo Anticancer Drug Screen. Data for tumor model L1210 Leukemia (intraperitoneal) in CD2F1 (CDF1) mice
Details: endpoint: mean survival time, higher = longer survival
Outline: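 Each value reflects a quotient of treated over vehicle control outcomes in mice with a transplanted tumor.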

[1] = dose: 100.0 mg/kg/injection, schedule: Q01DX009 (ip), vehicle: saline
[2] = dose: 200.0 mg/kg/injection, schedule: Q01DX009 (ip), vehicle: saline
[3] = dose: 400.0 mg/kg/injection, schedule: Q01DX009 (ip), vehicle: saline
[4] = dose: 200.0 mg/kg/injection, schedule: Q01DX001 (ip), vehicle: saline
[5] = dose: 100.0 mg/kg/injection, schedule: Q01DX009 (ip), vehicle: saline with Tween-80
[6] = dose: 100.0 mg/kg/injection, schedule: Q04DX003 (ip), vehicle: saline with Tween-80
[7] = dose: 200.0 mg/kg/injection, schedule: Q04DX003 (ip), vehicle: saline with Tween-80
[8] = dose: 400.0 mg/kg/injection, schedule: Q01DX009 (ip), vehicle: saline with Tween-80
[9] = dose: 400.0 mg/kg/injection, schedule: Q04DX003 (ip), vehicle: saline with Tween-80
[10] = dose: 100.0 mg/kg/injection, schedule: Q01DX009 (ip), vehicle: Klucel (hydroxypropylcellulose) (HPC)
[11] = dose: 200.0 mg/kg/injection, schedule: Q01DX009 (ip), vehicle: Klucel (hydroxypropylcellulose) (HPC)
[12] = dose: 100.0 mg/kg/injection, schedule: Q04DX002 (ip), vehicle: saline with Tween-80
[13] = dose: 200.0 mg/kg/injection, schedule: Q04DX002 (ip), vehicle: saline with Tween-80
[14] = dose: 400.0 mg/kg/injection, schedule: Q04DX002 (ip), vehicle: saline with Tween-80
[15] = dose: 50.0 mg/kg/injection, schedule: Q01DX009 (ip), vehicle: saline

Measured: T/C

CCCCCCCCCCOCCCCCCCCCC
inactive: [1] 95 % of control | dose: 100.0 mg/kg/injection, schedule: Q04DX003 (ip), vehicle: saline 94 % of control | [2] 98 % of control | dose: 200.0 mg/kg/injection, schedule: Q04DX003 (ip), vehicle: saline 101 % of control | [3] 97 % of control | dose: 400.0 mg/kg/injection, schedule: Q04DX003 (ip), vehicle: saline 94 % of control

CC[C@H](C)c1occ2c(O)c(C(=O)O)c(=O)cc-2c1C
inactive: dose: 100.0 mg/kg/injection, schedule: Q01DX001 (ip), vehicle: saline 98 % of control | [4] 101 % of control

CCCc1cc(OC)ccc1O
inactive: [5] 96 % of control | [6] 96 % of control | dose: 200.0 mg/kg/injection, schedule: Q01DX009 (ip), vehicle: saline with Tween-80 100 % of control | [7] 94 % of control | [8] 100 % of control | [9] 103 % of control

Cc1ccc(C(=O)CC#N)c(C)c1
inactive: [5] 96 % of control | [6] 98 % of control | [7] 112 % of control | [8] 90 % of control | [9] 102 % of control

Cc1ccc(S(=O)(=O)OCC2OCOC(C(O)CO)C2O)cc1 (configuration not stated)
inactive: dose: 50.0 mg/kg/injection, schedule: Q01DX009 (ip), vehicle: Klucel (hydroxypropylcellulose) (HPC) 101 % of control | [10] 97 % of control | [11] 97 % of control

CCCCCCCCCCCCOc1ccc(Cl)cc1
inactive: [12] 90 % of control | [13] 98 % of control | [14] 90 % of control

CC1(C)CC(=O)C2(CNC3=C(CCC(C)(C)C3)C2)C(=O)C1
inactive: dose: 50.0 mg/kg/injection, schedule: Q04DX002 (ip), vehicle: saline with Tween-80 91 % of control | [12] 91 % of control | [13] 100 % of control | [14] 91 % of control

O=C(O)C(=O)O.O=C(O)C(=O)O.[Th]
inactive: [4] 95 % of control | dose: 400.0 mg/kg/injection, schedule: Q01DX001 (ip), vehicle: saline 97 % of control

Cc1ccc(/C=C2\CC(C)(C)c3ccccc3C2=O)cc1
inactive: [1] 96 % of control | dose: 100.0 mg/kg/injection, schedule: Q04DX003 (ip), vehicle: other 104 % of control | [2] 94 % of control | dose: 200.0 mg/kg/injection, schedule: Q04DX003 (ip), vehicle: other 100 % of control | [3] 94 % of control | dose: 400.0 mg/kg/injection, schedule: Q04DX003 (ip), vehicle: other 105 % of control

Cc1nnc2ncccn12
inactive: dose: 12.5 mg/kg/injection, schedule: Q01DX009 (ip), vehicle: saline 96 % of control and 102 % of control | dose: 25.0 mg/kg/injection, schedule: Q01DX009 (ip), vehicle: saline 96 % of control and 97 % of control | [15] 92 % of control and 96 % of control | [1] 95 % of control and 97 % of control | [2] 90 % of control and 96 % of control

COc1cc(NC(C)=O)c2ncccc2c1Br
inactive: [6] 104 % of control | [7] 97 % of control | [9] 92 % of control

O=S(=O)(Cc1ccc(Cl)cc1Cl)Cc1ccc(Cl)cc1Cl
inactive: [10] 98 % of control | [11] 91 % of control | dose: 400.0 mg/kg/injection, schedule: Q01DX009 (ip), vehicle: Klucel (hydroxypropylcellulose) (HPC) 92 % of control

Nc1nc(N)nc(-c2ccccn2)n1
inactive: [15] 112 % of control

O=P(Oc1ccccc1)(Oc1ccccc1)N(CCCl)CCCl
inactive: dose: 12.5 mg/kg/injection, schedule: Q01DX009 (ip), vehicle: water 101 % of control | dose: 25.0 mg/kg/injection, schedule: Q01DX009 (ip), vehicle: water 100 % of control and 108 % of control | dose: 31.25 mg/kg/injection, schedule: Q01DX001 (ip), vehicle: distilled water + Tween-80 104 % of control | dose: 50.0 mg/kg/injection, schedule: Q01DX009 (ip), vehicle: water 104 % of control | dose: 62.5 mg/kg/injection, schedule: Q01DX001 (ip), vehicle: distilled water + Tween-80 107 % of control | dose: 125.0 mg/kg/injection, schedule: Q01DX001 (ip), vehicle: distilled water + Tween-80 102 % of control | dose: 250.0 mg/kg/injection, schedule: Q01DX001 (ip), vehicle: distilled water + Tween-80 119 % of control
active: dose: 100.0 mg/kg/injection, schedule: Q01DX009 (ip), vehicle: water 161 % of control

Cc1ccc(C(O)c2c(C)cc(C)cc2C)c(C)c1 (configuration not stated)
inactive: [6] 94 % of control | [7] 89 % of control | [9] 88 % of control

Nc1ccc(S(=O)(=O)S(=O)(=O)c2ccc(N)cc2)cc1
inactive: dose: 100.0 mg/kg/injection, schedule: Q01DX001 (ip), vehicle: saline with Tween-80 93 % of control | dose: 200.0 mg/kg/injection, schedule: Q01DX001 (ip), vehicle: saline with Tween-80 97 % of control
